Measured values published in patent publication US4533664A, “Antithrombotic N-(6-chloro-pyrazin-2-yl)-4-Hydroxy-2H-1,2-benzothiazine-3-carboxamide-1 ,1-dioxide derivatives, composition, and method of use” (Dr. Karl Thomae Gesellschaft mit beschrankter Haftung, priority 1982, dated 1985).
Where a name gives a salt, the structure may show the parent alone. Read-outs that look alike come from different tables or passages of the source.

Columns and labels:
[1] = test system: collagen-induced aggregation (platelet-rich plasma); assay: Born test, rat ex vivo, collagen-induced aggregation; format: in vivo; conditions: 1 hour after administration, optical density
Method: (b) Born test, rat ex vivo, collagen-induced aggregation
The following forms were tested:
The test compound was administered by esophageal tube in the form of an aqueous solution or, in the case of compound A in the form of a tylose suspension, to conscious rats weighing about 450 g. After 1 hour, blood was taken from the abdominal aorta of the animals (which had previously been anesthetized with pentobarbital sodium). The platelet-rich plasma obtained by centrifuging was pooled. The controls were three animals which had not been given any of the test compound. The method of taking blood and preparing the plasma was the same for both groups. The anticoagulant used was 2% sodium citrate in a volume ratio of 1+9.
All the testing was carried out one hour after the administration of the test compound.

[2] = test system: stomach of the rat; assay: ulcerogenic effect on the stomach of the rat; format: in vivo
[3] = test system: rat; assay: edema test (antiphlogistic effect); format: in vivo; conditions: for powerful antiphlogistic effect, dose range: p.o. in the rat (edema test)
[4] = test system: collagen-induced thrombocyte aggregation; assay: Born test, collagen-induced aggregation (platelet-rich plasma); format: cell-based, human (healthy test subjects); conditions: for inhibition at 10 µM: 10^-5 Mol/l; for inhibition at 1 µM: 10^-6 Mol/l
Method: The compounds were tested for their inhibiting effects in blood platelet aggregation induced by collagen and their effect of prolonging the bleeding time in mice. The compounds were also tested for their acute toxicity.
(a) Born test, collagen-induced aggregation
The thrombocyte aggregation was measured on platelet-rich plasma from healthy test subjects using the method of BORN and CROSS (J. Physiol. 170, 397 [1964]). The decrease in optical density of the platelet suspensions after the addition of collagen was measured photometrically and recorded. The rate of aggregation was deduced from the angle of inclination of the density curve. The point on the curve at which there is maximum light transmittance was used to calculate the "optical density". The quantity of collagen was selected so as to obtain an irreversible control curve.
The figures given refer to the optical density and indicate the percentage change in light transmittance (=% attenuation of aggregation) under the effect of the test substance, compared with the control.
Standard commercial collagen made by Hormon-Chemie of Munich was used.

[5] = Determination of acute toxicity; format: in vivo; conditions: mouse, in vivo; oral, mice; printed ">>1000 mg/kg"
Method: (§1) (d) Determination of acute toxicity
(§2) The acute toxicity was determined after oral administration to male and female mice. The compounds were administered as a suspension in tylose.
(§3) The following table indicates the number of animals which died within 1, 7 and 14 days after receiving the doses stated: […]

[6] = test system: mice; assay: Determination of acute toxicity; format: in vivo
Method: as §1, §2, §3

[7] = test system: bleeding time in mice; assay: Determination of the bleeding time in mice (method of DUKE); format: in vivo, mouse (NMRI Biberach)
Method: (c) Determination of the bleeding time in mice
The bleeding time was measured on unanesthetized female mice weighing from 20 to 25 g by the method of DUKE (J. Amer. Med. Assoc.) 15, 1187, 1910). About 0.5 mm of the tip of the animals' tail was cut off, and the blood escaping was carefully wiped away with a strip of filter paper at 30 second intervals. The number of drops of blood thus obtained provided a measurement of the bleeding time. The normal bleeding time in mice is 4.1 minutes on average.
Strain of animals: NMRI Biberach
Number of animals per test: 5
The test compound was administered by esophageal tube one hour before the measurement.

[8] = Homo sapiens, optical density, read-out: BORN test [= % reduction in aggregation]
[9] = Homo sapiens, Table I, read-out: IC50 (50% reduction in aggregation)
[10] = 250 mg/kg oral, of 10 animals (A) or 5 animals (B, Y, Z)
[11] = 1000 mg/kg oral, of 10 animals (A) or 5 animals (B)
[12] = Homo sapiens, as stated in text on Table I, read-out: concentration giving a 50% reduction in aggregation

SMILES | percentage inhibition of aggregation ([1]; 0.0125 mg/kg p.o.) [%] | percentage inhibition of aggregation ([1]; 0.025 mg/kg p.o.) [%] | percentage inhibition of aggregation ([1]; 0.05 mg/kg p.o.) [%] | ulcerogenic effect [2] | inhibition at 10 µM [4, 8] [%] | IC50 [4, 9] [nM] | Animals which died during the observation period, 1 day [6, 10] | Animals which died during the observation period, 7 days [6, 10] | Animals which died during the observation period, 14 days [6, 10] | other results
CN1C(C(=O)Nc2cncc(Cl)n2)=C(O)c2ccccc2S1(=O)=O [C, Sodium salt of N-(6-chloro-pyrazin-2-yl)-4-hydroxy-2-methyl-2H-1,2-benzothiazine-3-carboxamide-1,1-dioxide] | 0 | 32 | 96 | – | – | – | – | – | – | percentage inhibition of aggregation ([1]; 0.125 mg/kg p.o.): 100%; percentage inhibition of aggregation ([1]; 0.25 mg/kg p.o.): 100%; percentage inhibition of aggregation ([1]; 0.5 mg/kg p.o.): 100%
CN1C(C(=O)Nc2cncc(Cl)n2)=C(O)c2ccccc2S1(=O)=O [Compound A, N-(6-Chloro-pyrazin-2-yl)-4-hydroxy-2-methyl-2H-1,2-benzothiazine-3-carboxamide-1,1-dioxide] | – | – | – | no ulcerogenic effect up to 100 mg/kg | 95 | 470 | 0 | 0 | 0 | ED35 ([3]; Rattus norvegicus, po, edema test): > 200 mg/kg; antiphlogistic effect ([3]; edema test): no antiphlogistic effect; inhibition at 1 µM [4, 8]: 71%; inhibition at 0.1 µM ([4]; Homo sapiens, 10^-7 Mol/l, optical density, read-out: BORN test [= % reduction in aggregation]): 6%; concentration leading to a 50% reduction compared with prior art compounds Y and Z ([4]; comparison with Y and Z): about one tenth power lower; percentage inhibition of aggregation ([1]; 0.125 mg/kg p.o.): 14%; inhibition at 0.25 mg/kg ([1]; Rattus norvegicus, po, 1 h, 0.25 mg/kg p.o., read-out: percentage inhibition of aggregation): 93%; inhibition at 0.5 mg/kg ([1]; Rattus norvegicus, po, 1 h, 0.5 mg/kg p.o., read-out: percentage inhibition of aggregation): 86%; LD50 at 336 h [5]: > 1000 mg/kg; Animals which died during the observation period, 1 day [6, 11]: 0; Animals which died during the observation period, 7 days [6, 11]: 0; Animals which died during the observation period, 14 days [6, 11]: 0
CN1C(C(=O)Nc2cncc(Cl)n2)=C(O)c2ccccc2S1(=O)=O [Compound B, Potassium salt of N-(6-chloro-pyrazin-2-yl)-4-hydroxy-2-methyl-2H-1,2-benzothiazine-3-carboxamide-1,1-dioxide] | 26 | 86 | 100 | – | – | – | 0 | 0 | 0 | Animals which died during the observation period, 1 day [6, 11]: 0; Animals which died during the observation period, 7 days [6, 11]: 1; Animals which died during the observation period, 14 days [6, 11]: 1
CN1C(C(=O)Nc2cncc(Cl)n2)=C(O)c2ccccc2S1(=O)=O [D, Tetramethylammonium salt of N-(6-chloro-pyrazin-2-yl)-4-hydroxy-2-methyl-2H-1,2-benzothiazine-3-carboxamide-1,1-dioxide] | 27 | 20 | 97 | – | – | – | – | – | – | –
CN1C(C(=O)Nc2cncc(Cl)n2)=C(O)c2ccccc2S1(=O)=O [E, Ethanolamine salt of N-(6-chloropyrazin-2-yl)-4-hydroxy-2-methyl-2H-1,2-benzothiazine-3-carboxamide-1,1-dioxide] | 10 | 53 | 87 | – | – | – | – | – | – | –
CN1C(C(=O)Nc2cncc(Cl)n2)=C(O)c2ccccc2S1(=O)=O [F, Calcium salt of N-(6-chloro-pyrazin-2-yl)-4-hydroxy-2-methyl-2H-1,2-benzothiazine-3-carboxamide-1,1-dioxide] | 27 | 64 | 77 | – | – | – | – | – | – | –
CN1C(C(=O)Nc2cncc(Cl)n2)=C(O)c2ccccc2S1(=O)=O [G, Ammonium salt of N-(6-chloro-pyrazin-2-yl)-4-hydroxy-2-methyl-2H-1,2-benzothiazine-3-carboxamide-1,1-dioxide] | 7 | 36 | 92 | – | – | – | – | – | – | –
CN1C(C(=O)Nc2ccccn2)=C(O)c2ccccc2S1(=O)=O [Y, 4-hydroxy-2-methyl-N-(2-pyridyl)-2H-1,2-benzothiazine-3-carboxamide-1,1-dioxide] | – | – | – | strong ulcerogenic effect | 85 | 2000 | 0 | 3 | 3 | powerful antiphlogistic effect, dose range [3]: 1 to 5 mg/kg; inhibition at 1 µM [4, 8]: 39%; IC50 [4, 12]: 2000 nM; side effects ([7]; 10 mg/kg): already show side effects
CN1C(C(=O)Nc2cnccn2)=C(O)c2ccccc2S1(=O)=O [Z, 4-hydroxy-2-methyl-N-(2-pyrazinyl)-2H-1,2-benzothiazine-3-carboxamide-1,1-dioxide] | – | – | – | strong ulcerogenic effect | 15 | > 10000 | 1 | 4 | 4 | powerful antiphlogistic effect, dose range [3]: 1 to 5 mg/kg; IC50 [4, 12]: > 10000 nM; Prolongation of bleeding time ([7]; 10 mg/kg by esophageal tube, one hour before the measurement): +62%
